Here are results for one compound from paper PMC11970527 (RSC Chemical Biology, 2025).

Where two headings read alike, the source gives them in different places.

What is called koff is the first-order rate constant of dissociation. Low readings indicate slow dissociation, high ones fast dissociation. Usually Kd stands for the concentration at which binding is half-saturated.

In data set [1] the test system is phytase-4. The data set can be described thus: stability against phytase-4 by 31P NMR. The note with it: 4 mM ligand, over 32 h, 100 mM acetate buffer pH 5. The class given is in vitro ADME, wheat.
A short description of data set [2]: Precipitation Assay with CaCl2. Format: physicochemical. The note with it: 4 mM ligand, pH 7.4, 100 mM tris.
The target of data set [3] is T1, AvrA (Salmonella enterica subsp. enterica serovar Typhimurium, UniProt E8XKZ3).
T1 sequence (E8XKZ3 1-301): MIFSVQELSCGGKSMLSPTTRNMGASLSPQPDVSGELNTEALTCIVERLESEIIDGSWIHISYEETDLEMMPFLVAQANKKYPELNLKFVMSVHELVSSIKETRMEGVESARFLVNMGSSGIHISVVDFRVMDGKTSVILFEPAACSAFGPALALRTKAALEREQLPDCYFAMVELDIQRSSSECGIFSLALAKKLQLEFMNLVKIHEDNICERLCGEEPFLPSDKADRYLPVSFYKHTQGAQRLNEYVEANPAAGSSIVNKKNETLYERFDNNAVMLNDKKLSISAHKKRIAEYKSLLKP
The data set can be described thus: isothermal calorimetry. The class given is binding. (Isothermal titration calorimetry measures the heat released or taken up as one component is titrated into another.)

Data set [4] addresses TcdB CPD (Clostridioides difficile, UniProt P18177). In words: isothermal calorimetry. Format: binding.
Data set [5] deals with VopA. The data set can be described thus: differential scanning fluorimetry. The class given is binding, Vibrio parahaemolyticus. As to conditions: DSF, nonlinear curve fit, n = 5. Background: In DSF a fluorescence change marks the thermal transition of the protein.
Data set [6] has as its target T1, AvrA. The note with it: read-out: Kd previously described; cited from earlier work.
For data set [7] the following is noted: pH 7.4; cited from earlier work.

TcdB CPD, sequence (P18177 543-799 limits assumed): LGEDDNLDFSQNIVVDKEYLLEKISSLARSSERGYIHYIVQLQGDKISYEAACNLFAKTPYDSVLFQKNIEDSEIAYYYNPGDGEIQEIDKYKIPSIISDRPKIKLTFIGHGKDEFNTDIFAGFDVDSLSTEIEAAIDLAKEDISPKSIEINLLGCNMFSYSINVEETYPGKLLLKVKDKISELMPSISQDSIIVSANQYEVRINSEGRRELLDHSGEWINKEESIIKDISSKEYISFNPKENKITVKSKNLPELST

For `O=P(O)(O)O[C@H]1[C@H](OP(=O)(O)O)[C@@H](OP(=O)(O)O)[C@H](OP(=O)(O)O)[C@@H](OP(=O)(O)O)[C@H]1OP(=O)(O)O` [IP6, myo-inositol hexakisphosphate], in data set [1], the “stability in the presence of phytase-4” value is “hydrolysed within the first hour”. For the same compound, the “CaCl2 concentration that induces precipitation (X0)” value in data set [2] was found to be 4 mM. For the same compound, the values for the dissociation rate constant (koff) in data set [3] and in data set [4] were 0.00171 s⁻¹ and 0.0409 s⁻¹, respectively. In addition, the ΔH in data set [3] (AvrA, ITC, 20 °C, mean (SD)) is on record as −21.09 (0.12) kcal mol^−1; in data set [4] (TcdB CPD, ITC, 20 °C, mean (SD)), −22.94 (0.05) kcal mol^−1. Further, the Kd in data set [3] (K d, AvrA, ITC, 20 °C, mean (SD)) was 139 nM; in data set [4], 1920 nM; in data set [6] it was 5180 nM. Moreover, in data set [5], the “Maximal ΔTM” value amounted to 12.4 °C. In addition, in data set [7], the net charge is reported as −8.
